# Square brackets hold non-standard residues; d marks the D form. Ends that are not written are not given here. Peptide text beside a SMILES is read from it. 1Nal = N[C@@H](Cc1cccc2ccccc12)C(=O)O
# Legend:
# [1] = tested on: rough mutant E. coli J5 bacteria; assay: Radial diffusion bactericidal assay, E. coli J5; format: cell-based; details: radial diffusion; PROBIT analysis; E. coli J5 (rough)
# In short: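 Log-phase bacteria, washed in 10 mM sodium phosphate pH 7.4, were seeded at 4×10^6 CFU/mL in underlayer agarose. BPI fragments (5 or 10 μL) went into 3 mm wells for 3 h at 37° C., then overlayer agarose was added. After overnight 37° C. incubation, clearing zones were measured by micrometer.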
# [2] = 3H-heparin binding assay (affinity and capacity); details: for Heparin Capacity: heparin bound at saturation; for Kd: read-out: Heparin Affinity
# In short: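 Bound 3H-heparin was counted by liquid scintillation after 1 h incubation at 4 °C with fragments immobilised on PVDF-bottomed wells, then washing in blocking buffer. Signal was corrected for BSA-related background, and varying amounts of rBPI23 were used as positive control.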
# [3] = tested on: E. coli 0111:B4 (smooth) bacteria; assay: Radial diffusion bactericidal assay, E. coli 0111:B4; format: cell-based; details: radial diffusion; PROBIT analysis; E. coli O111:B4 (smooth)
# [4] = tested on: Staphylococcus aureus; assay: Radial diffusion bactericidal assay, Staphylococcus aureus; format: cell-based; details: radial diffusion; PROBIT analysis; S. aureus
# [5] = tested on: C. albicans; assay: Radial diffusion fungicidal assay, Candida albicans; format: cell-based; details: radial diffusion
# [6] = tested on: RAW 264.7 cells; assay: LPS neutralization cellular proliferation assay, RAW 264.7 cells; format: cell-based, mouse
# In short: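 Mouse RAW 264.7 cells were primed 24 h with 50U/mL mouse γ-interferon, then exposed about 15 h to E. coli O113 LPS in serum-free RPMI with or without BPI peptides at 25 ng/mL–50 μg/mL. Proliferation was quantified by [^3H]-thymidine uptake, 1 μCi/well, added at 5 h.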
# [7] = tested on: Candida albicans; format: cell-based
compound,measurement,setting,value
CC[C@H](C)[C@H](NC(=O)[C@H](CC(C)C)NC(=O)[C@H](Cc1cccc2ccccc12)NC(=O)CNC(=O)[C@@H](NC(=O)[C@H](CCCCN)NC(=O)[C@H](CO)NC(=O)[C@@H](N)CCCCN)C(C)C)C(=O)N[C@@H](CCC(N)=O)C(=O)N[C@@H](CC(C)C)C(=O)N[C@@H](Cc1ccccc1)C(=O)N[C@@H](Cc1c[nH]cn1)C(=O)N[C@@H](CCCCN)C(=O)N[C@@H](CCCCN)C(=O)O [BPI.83] (H-KSKVG[1Nal]LIQLFHKK-OH),"pmol added to well to achieve a 30 mm^2 bactericidal zone, E. coli J5",[1],164.84 pmol
same,Heparin Capacity,[2],253.3 ng
same,Kd,[2],0.41 µM
same,"pmol added to well to achieve a 30 mm^2 bactericidal zone, E. coli O111:B4",[3],"51,147.55 pmol"
same,"pmol added to well to achieve a 30 mm^2 bactericidal zone, S. aureus",[4],"116,500.54 pmol"
same,C. albicans: pmol required for 30 mm^2 zone,[5],1804.26 pmol
same,EC50 (peptide concentration at which the growth inhibitory effect of LPS was reversed by 50%),[6],1.2 ± 0.1 mg/L
CC[C@H](C)[C@H](N)C(=O)N[C@@H](CCCCN)C(=O)N[C@H](C(=O)N[C@@H](CO)C(=O)NCC(=O)N[C@@H](CCCCN)C(=O)N[C@@H](Cc1cccc2ccccc12)C(=O)N[C@@H](CCCCN)C(=O)N[C@@H](C)C(=O)N[C@@H](CCC(N)=O)C(=O)N[C@@H](Cc1ccccc1)C(=O)N[C@@H](CCCNC(=N)N)C(=O)N[C@@H](Cc1ccccc1)C(=O)N[C@@H](CC(C)C)C(=O)N[C@@H](CCCCN)C(=O)N[C@@H](CCCCN)C(=O)N[C@@H](CO)C(=O)N[C@@H](CCCCN)C(=O)N[C@H](C(=O)NCC(=O)N[C@@H](Cc1c[nH]c2ccccc12)C(=O)N[C@@H](CC(C)C)C(=O)N[C@H](C(=O)N[C@@H](CCC(N)=O)C(=O)N[C@@H](CC(C)C)C(=O)N[C@@H](Cc1ccccc1)C(=O)N[C@@H](Cc1c[nH]cn1)C(=O)N[C@@H](CCCCN)C(=O)N[C@@H](CCCCN)C(=O)O)[C@@H](C)CC)C(C)C)[C@@H](C)CC [BPI.93] (H-IKISGK[1Nal]KAQFRFLKKSKVGWLIQLFHKK-OH),"pmol added to well to achieve a 30 mm^2 bactericidal zone, E. coli J5",[1],212.87 pmol
same,Heparin Capacity,[2],291.5 ng
same,Kd,[2],0.387 µM
same,"pmol added to well to achieve a 30 mm^2 bactericidal zone, E. coli O111:B4",[3],"10,118.98 pmol"
same,"pmol added to well to achieve a 30 mm^2 bactericidal zone, S. aureus",[4],b (no detectable activity up to 5 μg/well)
same,C. albicans: pmol required for 30 mm^2 zone,[5],>980.27 pmol
same,EC50 (peptide concentration at which the growth inhibitory effect of LPS was reversed by 50%),[6],0.9 ± 0.25 mg/L
same,IC50 (peptide concentration at which RAW cell growth was inhibited by 50%),[6],9.7 ± 0.1 mg/L
KSKVGWLIFLFHKK [BPI.91],"pmol added to well to achieve a 30 mm^2 bactericidal zone, E. coli J5",[1],"21,014.73 pmol"
same,Heparin Capacity,[2],181.2 ng
same,Kd,[2],0.288 µM
same,"pmol added to well to achieve a 30 mm^2 bactericidal zone, E. coli O111:B4",[3],b (no detectable activity up to 5 μg/well)
same,"pmol added to well to achieve a 30 mm^2 bactericidal zone, S. aureus",[4],b (no detectable activity up to 5 μg/well)
same,C. albicans: pmol required for 30 mm^2 zone,[5],>3843.54 pmol
same,IC50 (peptide concentration at which RAW cell growth was inhibited by 50%),[6],— (No proliferation decrease up to 50 μg/ml)
KSKVGWLILLFHKK [BPI.86],"pmol added to well to achieve a 30 mm^2 bactericidal zone, E. coli J5",[1],"1,519.64 pmol"
same,Heparin Capacity,[2],208.4 ng
same,Kd,[2],0.383 µM
same,"pmol added to well to achieve a 30 mm^2 bactericidal zone, E. coli O111:B4",[3],b (no detectable activity up to 5 μg/well)
same,"pmol added to well to achieve a 30 mm^2 bactericidal zone, S. aureus",[4],"459,138.55 pmol"
same,C. albicans: pmol required for 30 mm^2 zone,[5],>2048.45 pmol
same,EC50 (peptide concentration at which the growth inhibitory effect of LPS was reversed by 50%),[6],0.13 ± 0.04 mg/L
KSKVKWLIQLFHKK [BPI.97],"pmol added to well to achieve a 30 mm^2 bactericidal zone, E. coli J5",[1],295.58 pmol
same,Heparin Capacity,[2],252.2 ng
same,Kd,[2],0.765 µM
same,"pmol added to well to achieve a 30 mm^2 bactericidal zone, E. coli O111:B4",[3],b (no detectable activity up to 5 μg/well)
same,"pmol added to well to achieve a 30 mm^2 bactericidal zone, S. aureus",[4],b (no detectable activity up to 5 μg/well)
same,C. albicans: pmol required for 30 mm^2 zone,[5],213.22 pmol
same,MIC C. alb,[7],3.13 mg/L

# Source: patent US20040023884A1, “Biologically active peptides from functional domains of bactericidal/permeability-increasing protein and uses thereof” (priority 1993, published 2004)
